Key:
Format in all cases: in vivo
B2m-knockout MC38 clones = experiment: B2m KO MC38 clones and negative control clone intradermally inoculated into mice
Protocol: [FIG. 3-2] Continuation of FIG. 3. G to J: The experimental schema (G), tumor volumes (H), flow cytometric images (I), as well as quantitative data (J) of tumor-infiltrating CD8^+ T cells on day 23 are shown (n=5 to 9/group). * represents p<0.05, and ** represents p<0.01. K: Tumor volumes of mice (n=5 to 6/group). Mice were intraperitoneally injected with 35 μg of αPD-L1 antibody or isotype control (isotype IgG) once weekly on days 9 and 16 for NC and days 11 and 18 for B2M KO #2. * represents p<0.05. All data are shown as the mean±SEM. Experiments were performed at least twice for A to F, or once for others. Statistical significance was determined using unpaired Student's t-test for (H), (J), and (K) and one-way ANOVA followed by Bonferroni's multiple comparisons test for (D) and (F).
Furthermore, whether neoantigen presentation in cancer cells is important for the antitumor effects of Compound 1 was investigated by establishing a CRISPR-Cas9-mediated knockout of B2m, an essential component of MHC class I, using MC38 cells. […] It was further confirmed that surface H-2K^b on these cells disappeared (FIGS. 3-1C and 3-1D) without affecting IFN-γ signaling (FIG. 3-1A) and the expression of PD-L1 on the cell surface (FIGS. 3-1E and 3-1F).
Then, these B2m KO MC38 clones were intradermally inoculated into immunodeficient mice, and the antitumor effects of Compound 1 were evaluated (FIG. 3-2G).

[1] = tested on: colon, lung, and liver tissues; experiment: RNA-seq of normal tissues from Compound 1-administered mice
Description: In addition, the RNA-seq data corresponding to colon, lung, and liver tissues from Compound 1-administered mice was also examined to analyze the extent of splicing alterations. […] Considering that immune responses were not triggered by Compound 1 in these tissues, these altered splicing events in normal tissues were likely irrelevant to immunogenicity (FIGS. 2-2I to 2-3M).

MC38 tumors = experiment: MC38 tumor-bearing model
Protocol: [FIG. 1-1] FIG. 1. Chemical activation of SRSFs exerts antitumor effects in a CD8^+ T cell-dependent manner and potentiates the response to PD-1 blockade. A: Experimental procedure involving an MC38 tumor-bearing model. B and C: Tumor volumes (B) and survival (C) are shown (n=12/group). ** represents p<0.01; and *** represents p<0.001. D and E: MC38 cells were treated with Compound 1 for 72 hours (D) or for the indicated time (E). Cell proliferation and cell death were measured using CCK-8 and LDH assays, respectively (n=3/group). F and G: Representative images (F) and quantitative data (G) of flow cytometry are shown (n=[…]/group). * represents p<0.05. H: Experimental procedure of antibody injection in an MC38 tumor-bearing model.
[FIG. 1-2] Continuation of FIG. 1. I to L; Representative images (I and K) and quantitative data (J and L) of flow cytometry are shown (n=7/group for spleen (J); n=10/group for tumor (L)). *** represents p<0.001. M and N: Tumor growth curves (M) and tumor volumes on day 23 (N) are shown (n=10/group). * represents p<0.05. “ns” represents “not significant”. O and P: Tumor volumes of mice (n=12/group) are shown collectively (O) or individually (P). ** represents p<0.01, and *** represents p<0.001, vs. isotype IgG+vehicle. # represents p<0.05, and […] represents p<0.001, between the indicated groups. Q: Changes in body weight of mice (n=5/group). In FIG. 1, all data are shown as the mean±SEM. All experiments were performed at least twice. Statistical significance was determined using unpaired Student's t-test for (G), (J), (L), and (N), and one-way ANOVA followed by Bonferroni's multiple comparisons test for (B) and (O).
First, in vivo activity was assessed using syngeneic MC38 tumors intradermally transplanted into […] mice (FIG. 1-1A).
Based on these observations, whether the Compound 1 induced antitumor effects were due to enhanced cancer immunity was then examined. Endogenous CD8^+ T cells were depleted using CD8-depleting antibody (αCD8), and the antitumor effects of Compound 1 administration were evaluated (FIG. 1-1H).

[2] = syngeneic MC38 tumors intradermally transplanted

## Clc1nc(NCc2ccco2)c2[nH]cnc2n1 [Compound 1]
B2m-knockout MC38 clones; B2m KO clones
  antitumor effects (tumor growth): completely abolished
B2m-knockout MC38 clones; B2m KO-derived tumors
  number of CD8^+ T cells in tumors: no longer inducible
B2m-knockout MC38 clones; negative control clone
  antitumor effects (tumor growth): suppressed tumor growth
[1]; colon, lung, liver
  induced splicing events fewer in normal tissues than in MC38 cells: 50-60%
[1]; data not shown
  validated splice-neoantigen forms in normal tissues: none of the validated splice-neoantigen forms were significantly induced
MC38 tumors; CD8-depleting antibody (αCD8)
  tumor suppression when CD8^+ T cells were depleted: not effective
MC38 tumors; day 23, vs. isotype IgG+vehicle
  suppressed tumor growth: 28.5%
MC38 tumors; extracted tumors, flow cytometry
  frequency of tumor-infiltrating CD8+ T cells: about 1.5 fold
MC38 tumors; host dendritic cells or macrophages
  changes in the expression of PD-L1: not detected
MC38 tumors; mouse, in vivo
  body weight or apparent adverse effects: no change in body weight or apparent adverse effects
MC38 tumors; [2]
  in vivo tumor growth: tumor growth suppression
  survival: prolonged survival

Source: US20240423988A1, “Improvement of Tumor Immunogenicity by Means of Splicing-Controlling Compound” (Kyoto University, priority 2021, published 2024)
